Test results: patent publication US11285153B2, “Substituted pyrimidine piperazine compound and use thereof” (SUNSHINE LAKE PHARMA CO., LTD., priority 2017, dated 2022)

Key:
mice = experiment: Forced swimming test of mice, stationary time; type: in vivo, C57BL/6 mice; details: for Stationary time: 3 mg/kg intraperitoneally 30 minutes before the test, last 4 minutes of 6 minutes, Mean ± SEM, vehicle 120.4 ± 16.5
Experimental: The effects of the compound of the invention on the stationary time in a forced swimming test of mice were evaluated in the present invention.
Animals (C57BL/6 mice) were fed in the animal house barrier system one week earlier to adapt to the rearing environment of animal house. Three days before the trial, each animal was touched 2-3 minutes/day. On the day of the experiment, the animals were transferred to the operating room 60 minutes in advance, and were randomly divided into a vehicle group (20% HP-β-CD+80% H2O), a 40 mg/kg dose group of hydrochloride of Desipramine as the standard reference compound, 1, 3, 10 mg/kg dose groups of the phosphate of the test compound, a 3 mg/kg dose group of the hydrochloride of Vilazone, and a 3 mg/kg dose group of hydrochloride of compound A, a total of 7 groups, the number of animals in each group was 15-16. The vehicle, the standard reference compound of Desipramine, the test compound, Vilazodone or Compound A were intraperitoneally injected 30 minutes before the test. The mice were placed in the experimental apparatus during the test. The experimental apparatus was a cylindrical organic transparent glass tank (23 cm high and 12 cm in diameter). The water level was 8 cm from the bottom and the water temperature was 22±2° C. The length of each test was 6 minutes. There was one animal in each sink, recorded by an Ethovision software and a double-blind manual counting analysis. The stationary time of the last 4 minutes of the animal was recorded. All the experimental results were expressed as mean ±standard error (Mean ±SEM). Prism 6.0 statistical software was used to test and analyze the results. The significance of the difference was P<0.05, and P<0.01 was very significant.

5-HT1A receptor = target: T1, 5-HT1A receptor (Homo sapiens, UniProt P08908); experiment: h5-HT1A binding affinity test, [3H]8-OH-DPAT, HEK-293 cell membranes; details: 0.3 nM [3H]8-OH-DPAT, 22° C., 60 minutes; from IC50 by ChengPrusoff equation
T1 construct: host or cells: human HEK-293 cells, membrane homogenate
T1 sequence (P08908 1-422): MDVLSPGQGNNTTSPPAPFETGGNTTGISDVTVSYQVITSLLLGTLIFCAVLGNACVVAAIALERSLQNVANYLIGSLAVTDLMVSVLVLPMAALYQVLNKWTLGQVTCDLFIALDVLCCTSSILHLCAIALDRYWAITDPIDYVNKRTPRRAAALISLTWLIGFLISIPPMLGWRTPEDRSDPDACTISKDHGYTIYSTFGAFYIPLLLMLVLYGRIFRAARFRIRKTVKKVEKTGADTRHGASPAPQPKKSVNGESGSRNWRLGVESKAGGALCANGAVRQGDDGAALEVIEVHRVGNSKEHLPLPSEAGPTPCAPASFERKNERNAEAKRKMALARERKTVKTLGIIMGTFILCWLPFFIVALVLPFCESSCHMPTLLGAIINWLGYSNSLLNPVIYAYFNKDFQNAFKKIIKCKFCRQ
Experimental: Example B: h5-HT1A Binding Affinity Test
To a mixture of human HEK-293 cell membrane homogenate (36 μg protein), 0.3 nM [^3H]8-OH-DPAT (Perkin-Elmer) and buffer (50 mM Tris-HCl (pH 7.4), 10 mM MgSO4, 0.5 mM EDTA, 2 μg/ml aprotinine) was added test compound or not under a condition of 22° C. The reaction mixture was incubated for 60 minutes.
The standard reference compound was 8-OH-DPAT. To a mixture of the above condition was added 10 μM 8-OH-DPAT to measure the non-specific binding value. A competitive curve was obtained by testing the data of a series of concentrations of 8-OH-DPAT in different experiments.
(§1) The incubated samples were quickly filtered through a glass fiber membrane (GF/B, Packard) impregnated with 0.3% PEI by a 96-well cell collector (Unifilter, Packard) under vacuum, and repeatedly rinsed with cold 50 mM Tris-HCl for several times. The filter was dried and the residual radioactivity was calculated in a scintillation counter (Topcount, Packard) by using scintillation fluid (Microscint 0, Packard). The experimental results were expressed as a percentage of inhibition of specific binding of radioligand to the control group.
The binding assay of [^3H]8-OH-DPAT (0.3 nM) to the 5-HT1A receptor in human HEK-293 cells was performed by a scintillation proximity assay of the membrane. The test compound needed to be tested at least three times at a concentration exceeding 6 log, and the data was subjected to nonlinear regression analysis by a Hill equation curve to obtain an IC50 value, which was then calculated by the ChengPrusoff equation to obtain a Ki value.

[1] = Pharmacokinetic evaluation in rats after intravenous or intragastric administration; type: in vivo; details: SD, rat, plasma
Experimental: Pharmacokinetics of the compound of the invention in rats, dogs and monkeys were studied and evaluated.
The compound was administered to the tested animals in the form of 5% DMSO+5% Kolliphor HS15+2% (2% HCl)+88% Saline saline solution or 10% DMSO+10% Kolliphor HS15+80% normal saline solution. For the intravenous administration group, the dose was 1 mg/kg, and then the venous blood (0.3 mL) was taken at a time of 0, 0.083, 0.25, 0.5, 1.0, 2.0, 5.0, 7.0, and 24 hours after administration, and centrifuged at 3,000 or 4,000 rpm for 10 minutes. The plasma solution was collected and stored at −20° C. or −70° C. For the intragastric administration group, the dose was 2.5 mg/kg, and then the venous blood (0.3 mL) was taken at a time of 0, 0.083, 0.25, 0.5, 1.0, 2.0, 5.0, 7.0, and 24 hours after administration, and centrifuged at 3,000 or 4,000 rpm for 10 minutes. The plasma solution was collected and stored at −20° C. or −70° C.
The plasma solutions obtained from each of the above groups were subjected to LC/MS/MS analysis.
The LC/MS/MS system for analysis included the Agilent 1200 Series vacuum degasser, binary pump, orifice autosampler, thermostatic column oven, and Agilent G6430A triple quadrupole mass spectrometer with electrospray ionization (ESI) source.
Analysis was performed using a waters XBridge C18 (2.1×50 mm) column. The column was 3.5 μM and injection volume was 5 μL. The analytical conditions were as follows: mobile phase A: water+2 mM ammonium formate+0.1% formic acid mobile phase B: methanol+2 mM ammonium formate+0.1% formic acid. The flow rate was 0.4 mL/min.

[2] = target: T2, humanized 5-HT transporter (SERT) (Homo sapiens, UniProt P31645); experiment: Affinity to humanized 5-HT transporter (SERT), [3H]imipramine binding, transfected CHO cell membranes; details: 2 nM [3H]imipramine, 22° C., 60 minutes
T2 construct: expressed in transfected cells; host or cells: CHO cells, membrane homogenate
Experimental: Example A: Evaluation of the Affinity of the Compound of the Invention to Humanized 5-HT Transporter Transfected by CHQ Cells
To a mixture of cell membrane homogenate protein (12 μg), 2 nM [^3H] imipramine, buffer (50 mM Tris-HCl (pH 7.4), 120 mM NaCl, 5 mM KCl, and 0.1% BSA) was added test compound or not under a condition of 22° C. The reaction mixture was incubated for 60 minutes.
To the mixture of the above condition was added 10 μM imipramine to measure the non-specific binding value.
as §1, with “Tris-HCl and 150 mM NaCl” for “Tris-HCl”
The standard reference compound was imipramine. The competitive curve was obtained by a series of concentration experiments and the IC50 was calculated.

T2 sequence (P31645 whole entry): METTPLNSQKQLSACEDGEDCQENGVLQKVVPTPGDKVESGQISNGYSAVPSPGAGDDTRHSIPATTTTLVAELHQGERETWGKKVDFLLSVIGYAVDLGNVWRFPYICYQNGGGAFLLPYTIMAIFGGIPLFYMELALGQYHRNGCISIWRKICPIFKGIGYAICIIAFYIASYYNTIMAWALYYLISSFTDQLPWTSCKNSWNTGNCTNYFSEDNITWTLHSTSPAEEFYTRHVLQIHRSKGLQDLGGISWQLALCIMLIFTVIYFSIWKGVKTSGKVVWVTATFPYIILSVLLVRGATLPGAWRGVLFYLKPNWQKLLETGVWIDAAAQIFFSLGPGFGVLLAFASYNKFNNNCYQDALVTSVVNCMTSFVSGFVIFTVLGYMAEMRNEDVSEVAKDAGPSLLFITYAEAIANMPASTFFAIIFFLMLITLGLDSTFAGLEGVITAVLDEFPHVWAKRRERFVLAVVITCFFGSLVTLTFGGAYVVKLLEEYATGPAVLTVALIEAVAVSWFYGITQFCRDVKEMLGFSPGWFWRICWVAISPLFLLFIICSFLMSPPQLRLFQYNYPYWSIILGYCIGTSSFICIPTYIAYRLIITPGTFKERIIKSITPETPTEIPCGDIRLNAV

SMILES: N#Cc1ccc2[nH]cc(CCCCN3CCN(c4ccc5oc(C(N)=O)cc5c4)CC3)c2c1 [Vilazodone]
- Stationary time (mice): 107.8 ± 16.1 s
- Effect on stationary time compared with the vehicle group (mice; forced swimming test, same dose (3 mg/kg)): slightly reduce the stationary time of mice, but there is no significant difference

SMILES: Cc1nc(-c2cnc(N3CCN(CCCc4c[nH]c5ccc(C#N)cc45)CC3)nc2)sc1C(N)=O [Example 8, 2-(2-(4-(3-(5-cyano-1H-indol-3-yl)propyl)piperazin-1-yl)pyrimidin-5-yl)-4-methylthiazole-5-formamide]
- Ki (5-HT1A receptor): 2140 pM
- AUC(0-inf) ([1]; iv, 1 mg/kg): 1820 ng·h/mL
- AUC(0-t) ([1]; iv, 1 mg/kg): 1740 ng·h/mL
- Cmax ([1]; iv, 1 mg/kg): 1000 ng/mL
- Tmax ([1]; iv, 1 mg/kg): 0.083 h
- clearance ([1]; iv, 1 mg/kg): 9.22 mL/min/kg
- half-life ([1]; iv, 1 mg/kg): 1.72 h
- Vd ([1]; iv, 1 mg/kg, read-out: Vss): 1.3 L/kg
- AUC(0-inf) ([1]; po, 2.5 mg/kg): 1550 ng·h/mL
- AUC(0-t) ([1]; po, 2.5 mg/kg): 1740 ng·h/mL
- Cmax ([1]; po, 2.5 mg/kg): 590 ng/mL
- Tmax ([1]; po, 2.5 mg/kg): 1 h
- bioavailability ([1]; po, 2.5 mg/kg): 39.8%
- half-life ([1]; po, 2.5 mg/kg): 1.58 h
- IC50 [2]: 330 pM

SMILES: Cc1nc(-c2cnc(N3CCN(CCCc4c[nH]c5ccc(C#N)cc45)CC3)nc2)sc1C(N)=O [drawing 37]
- Stationary time (mice): 75.1 ± 13.3 s

SMILES: Cc1nc(-c2cnc(N3CCN(CCCCc4c[nH]c5ccc(C#N)cc45)CC3)nc2)sc1C(N)=O [Example 7, 2-(2-(4-(4-(5-cyano-1H-indol-3-yl)butyl)piperazin-1-yl)pyrimidin-5-yl)-4-methylthiazole-5-formamide]
- Ki (5-HT1A receptor): 1010 pM
- IC50 [2]: 770 pM

SMILES: N#Cc1ccc2[nH]cc(CCCN3CCN(c4ncc(-c5cccc(C(N)=O)n5)cn4)CC3)c2c1 [Example 6, 6-(2-(4-(3-(5-cyano-1H-indol-3-yl)propyl)piperazin-1-yl)pyrimidin-5-yl)pyridine-2-carboxamide]
- Ki (5-HT1A receptor): 1100 pM
- IC50 [2]: 230 pM

SMILES: CCOC(=O)c1sc(-c2cnc(N3CCN(CCCCc4c[nH]c5ccc(C#N)cc45)CC3)nc2)nc1C [Example 9, ethyl 2-(2-(4-(4-(5-cyano-1H-indol-3-yl)butyl)piperazin-1-yl)pyrimidin-5-yl)-4-methylthiazole-5-formate]
- Ki (5-HT1A receptor): 990 pM
- IC50 [2]: 450 pM

SMILES: N#Cc1ccc2[nH]cc(CCCCN3CCN(c4ncc(-c5ccc(C(N)=O)cn5)cn4)CC3)c2c1 [Example 1, 6-(2-(4-(4-(5-cyano-1H-indol-3-yl)butyl)piperazin-1-yl)pyrimidin-5-yl)nicotinamide]
- Ki (5-HT1A receptor): 2130 pM
- IC50 [2]: 680 pM

SMILES: N#Cc1ccc2[nH]cc(CCCCN3CCN(c4ncc(-c5ccc(C(N)=O)nc5)cn4)CC3)c2c1 [Example 3, 5-(2-(4-(4-(5-cyano-1H-indol-3-yl)butyl)piperazin-1-yl)pyrimidin-5-yl)pyridine-2-carboxamide]
- Ki (5-HT1A receptor): 2190 pM
- IC50 [2]: 790 pM

SMILES: N#Cc1ccc2[nH]cc(CCCN3CCN(c4ncc(-c5ccc(C(N)=O)nc5)cn4)CC3)c2c1 [Example 4, 5-(2-(4-(3-(5-cyano-1H-indol-3-yl)propyl)piperazin-1-yl)pyrimidin-5-yl)pyridine-2-carboxamide]
- Ki (5-HT1A receptor): 4130 pM
- IC50 [2]: 810 pM

SMILES: CCOC(=O)c1sc(-c2cnc(N3CCN(CCCc4c[nH]c5ccc(C#N)cc45)CC3)nc2)nc1C [Example 10, ethyl 2-(2-(4-(3-(5-cyano-1H-indol-3-yl)propyl)piperazin-1-yl)pyrimidin-5-yl)-4-methylthiazole-5-formate]
- Ki (5-HT1A receptor): 2160 pM
- IC50 [2]: 130 pM

SMILES: N#Cc1ccc2[nH]cc(CCCCN3CCN(c4ncc(-c5cccc(C(N)=O)n5)cn4)CC3)c2c1 [Example 5, 6-(2-(4-(4-(5-cyano-1H-indol-3-yl)butyl)piperazin-1-yl)pyrimidin-5-yl)pyridine-2-carboxamide]
- Ki (5-HT1A receptor): 530 pM
- IC50 [2]: 660 pM

SMILES: N#Cc1ccc2[nH]cc(CCCN3CCN(c4ncc(-c5ccc(C(N)=O)cn5)cn4)CC3)c2c1 [Example 2, 6-(2-(4-(3-(5-cyano-1H-indol-3-yl)propyl)piperazin-1-yl)pyrimidin-5-yl)nicotinamide]
- Ki (5-HT1A receptor): 4310 pM
- IC50 [2]: 450 pM
